The results in this text go back to the Deep4Chem optical property database.

This data set in a line: solvent given as SMILES.

Structures are written as SMILES.

As for `CCCCc1ccc2ccc3cccc4ccc1c2c34`, the absorption maximum was found to be 338 nm (in CCCCCC), 338 nm (in CO) and 341 nm (in ClCCl).
As to `CCCCCCCCOc1ccc(-c2c3c4n(c(-c5ccc(OCCCCCCCC)cc5)c3c3n2[B-](F)(F)[n+]2c(sc5ccccc52)N=3)[B-](F)(F)[n+]2c(sc3ccccc32)N=4)cc1`, the absorption maximum (in ClC(Cl)Cl) is 655 nm.
In the case of `CC(=O)OCCOCCN1C(=O)c2cc(NCCOCCO)c3c4c(cc(NCCOCCO)c(c24)C1=O)C(=O)N(CCOCCOC(C)=O)C3=O`, the absorption maximum is, setting by setting: (in CO) 604 nm; (in ClC(Cl)Cl) 610 nm; (in O) 622 nm.
Where the note is “in CC#N”, `CCOC(=O)c1nn(-c2ccc(OC)cc2)nc1N1CCCC1` had an absorption maximum of 336 nm.
`C#CCOc1ccc(/C=C/C2=[N+]3C(=C(c4ccc(N(C)CC)cc4)c4c(C)cc(C)n4[B-]3(F)F)C(C)=C2)cc1` gave an absorption maximum (in CO) of 569 nm.
For `Cc1ccccc1C`, the absorption maximum (in C1CCCCC1) is listed as 258.26 nm.
The molecule `CCCCCCOc1cc2cc(=O)oc3ccc4cccc1c4c23` registered an absorption maximum (in CC1CCCO1) of 460 nm.
Where the note is “in CS(C)=O”, `C[N+]1=C(/C=C/C=C2/N(CCCS(=O)(=O)[O-])c3ccccc3C2(C)C)C(C)(C)c2ccccc21` gave an absorption maximum of 553 nm.
Under “in ClCCl”, `C(#Cc1c(C#Cc2cccs2)c(C#Cc2cccs2)c(C#Cc2cccs2)c(C#Cc2cccs2)c1C#Cc1cccs1)c1cccs1` came in with an absorption maximum of 371 nm.
`CN1C(=CC2=C([S-])C(=CC3=[N+](C)c4ccccc4C3(C)C)C2=O)C(C)(C)c2ccccc21`: where the note is “in ClC(Cl)Cl”, the absorption maximum worked out at 650 nm.
As for `N#Cc1ccc(-n2cccc2)cc1`, the absorption maximum by setting is: (in C1CCOC1) 287 nm; (in CC#N) 287 nm; (in CCCCCC) 287 nm; (in CCOCC) 287 nm; (in ClCCl) 287 nm.
Consider `O=P1(c2ccccc2)C(c2ccccc2)=Cc2ccccc21` (centres undefined), for which the absorption maximum is, setting by setting: (in C1CCOC1) 347 nm; (in ClCCl) 350 nm.
Under “in CCO”, `O=C(c1cc(F)c(N2CCOCC2)cc1F)c1cc(F)c(N2CCOCC2)cc1F` yielded an absorption maximum of 342 nm.
`CCC[Si](CCC)(CCC)c1cc2ccc3cccc4ccc(c1C(=O)NC(C)(C)C)c2c34` gave an absorption maximum (in ClC(Cl)Cl) of 382 nm.
Consider `COc1ccc2n1[B-](F)(F)[N+]1=C(SC#N)C=CC1=C2c1ccccc1`, for which the absorption maximum is recorded as 474 nm (in CC#N); 517 nm (in CCCCCC); 506 nm (in CCOC(C)=O); 480 nm (in CO); 508 nm (in ClCCl).
For the molecule `c1cc2ccc3sc4ccc5cccc6c(c1)c2c3c4c56`, where the note is “in ClC(Cl)Cl”, the absorption maximum is recorded as 412 nm.
For the setting “in CCO”, `CCOC(=O)/C(=C1\C(=O)C(O)=C1C=C1N(C)c2ccccc2C1(C)C)[N+](=O)[O-]` returned an absorption maximum of 475 nm.
Regarding `O=C1NC(c2ccccc2)=N/C1=C\c1ccccc1`, the absorption maximum (in C1COCCO1) was determined as 384 nm.
As for `c1cc2c3c(cccc3c1)-c1c-2ccc2ccc3ccccc3c12`, the absorption maximum (in CCCCCCC) was found to be 408 nm.
In turn, `Clc1ccc(N2c3c(sc4ccccc34)Sc3sc4ccccc4c32)cc1` gave an absorption maximum (in ClCCl) of 309 nm.
`COc1cc(/C=C/c2nc3ccccc3o2)c(OC)cc1/C=C/c1nc(C)nc(/C=C/c2cc(OC)c(/C=C/c3nc4ccccc4o3)cc2OC)n1`: the absorption maximum reads like this: (in C1CCOC1) 431 nm; (in CC#N) 431 nm; (in ClC(Cl)Cl) 436 nm; (in ClCCl) 431 nm.
As to `O=C(N/N=C/c1ccccc1O)c1ccc([N+](=O)[O-])cc1`, the absorption maximum by setting is: (in C1CCOC1) 338 nm; (in CC#N) 339 nm; (in CC(C)=O) 350 nm; (in CCO) 345 nm; (in CN(C)C=O) 380 nm; (in CS(C)=O) 342 nm. Moreover, the absorption maximum (in ClCCl) turned out to be 340 nm.
As for `CC(C)(C)c1ccc(-n2c(-c3ccc(-c4cccc(-c5c(-c6ccccc6)nc6ccccn56)c4)cc3)nc3c4ccccc4c4ccccc4c32)cc1`, where the note is “in ClCCl”, the absorption maximum stood at 365 nm.
The same measure, in the same setting: the result for `CCN(CC)c1ccc2cc(-c3nc4ccccc4n3-c3ccccc3)c(=O)oc2c1` reads 410 nm.
Where the note is “in C1CCCCC1”, `COc1ccccc1` had an absorption maximum of 267.24 nm.
For the molecule `CCN1c2ccc(/C=N/Nc3ccccn3)cc2Sc2cc(/C=N/Nc3ccccn3)ccc21`, the absorption maximum worked out at 392 nm (in C1CCOC1), 398 nm (in CS(C)=O), 392 nm (in Cc1ccccc1) and 393 nm (in ClCCl).
`COc1cc2c(cc1-c1ccc(C#N)cc1)Cc1c3c(c4c(c1-2)-c1cc(OC)c(-c2ccc(C#N)cc2)cc1C4)C(=O)N(CCC(C)C)C3=O` returned an absorption maximum (in C1CCOC1) of 409 nm.
`CC[N+]1(CC)CN2C(=N1)C(C(=O)O)=Cc1ccc(Cl)cc12`: for the setting “in O”, the absorption maximum is recorded as 367 nm.
Molecule `CC1=CC(C)=[N+]2C1=C(c1ccc(Br)cc1)c1c(C)cc(/C=C/c3ccc[nH]3)n1[B-]2(F)F` returned an absorption maximum (in ClCCl) of 590 nm.
Regarding `CCCCCCc1cc2c3cscc3c3cc(CCCCCC)sc3c2s1`, the absorption maximum (in ClC(Cl)Cl) is on record as 393 nm.
`CCCc1c(C(=O)c2ccc3c4c(cccc24)-c2cccc4c2C3CC=C4)c2ccc3cccc4c5cccc6ccc1c(c65)c2c34` (centres undefined): under “in ClCCl”, the absorption maximum turned out to be 468 nm.
For `c1ccc(-c2cc(-c3ccc4ccc5c(-c6ccnc(-c7ccccn7)c6)ccc6ccc3c4c65)ccn2)nc1`, the absorption maximum reads like this: (in C1CCOC1) 362 nm; (in CC#N) 360 nm; (in CCC#N) 360 nm; (in CCCC#N) 360 nm; (in CCCCCC) 361 nm; (in CCCO) 361 nm. Moreover, the absorption maximum (in CCO) turned out to be 361 nm, the absorption maximum (in CO) amounted to 363 nm and the absorption maximum (in Cc1ccccc1) is recorded as 362 nm.
As for `C1=C2C3=C(C4=[N+]2[B-]2(Oc5ccccc54)Oc4ccccc4-c4c5c(c1n42)C1CCC5CC1)C1CCC3CC1` (centres undefined), the absorption maximum (in ClCCl) turned out to be 626 nm.
Turning to `CCCCCCc1cc(-c2ccc3c(c2)C2CCCC2N3c2ccc3c(c2)C(C)(C)c2ccccc2-3)sc1/C=C1\C(=O)c2ccc(C(=O)O)cc2C1=O` (centres undefined), the absorption maximum (in ClC(Cl)Cl) was determined as 611 nm.
On to `O=C(O)CCCc1cc2ccc3cccc4ccc(c1)c2c34`, for which the absorption maximum (in CO) was 374 nm.
In turn, `CCC1(CC)c2cc(C=O)ccc2-c2ccc(N(C)C)cc21` came in with an absorption maximum (in C1CCCCC1) of 385 nm; an absorption maximum (in CC#N) of 385 nm; an absorption maximum (in CCO) of 388 nm; an absorption maximum (in CCOCC) of 379 nm; an absorption maximum (in CS(C)=O) of 395 nm; an absorption maximum (in ClCCl) of 392 nm. The molecule further yielded an absorption maximum (in c1ccccc1) of 388 nm.
On to `C[Si]1(c2ccccc2)C(c2ccc3c4ccccc4n(-c4ccccc4)c3c2)=C(c2ccccc2)C(c2ccccc2)=C1c1ccc2c3ccccc3n(-c3ccccc3)c2c1`, for which, where the note is “in C1CCOC1”, the absorption maximum was 398 nm.
For `CCCCCCOc1ccc(-c2cnc(-c3nnc(-c4ccc(OCCCCCC)cc4)o3)o2)cc1`, the absorption maximum runs as follows: (in C1CCCCC1) 316 nm; (in C1CCOC1) 319 nm; (in CC#N) 320 nm; (in CCO) 322 nm; (in CO) 320 nm; (in ClC(Cl)Cl) 325 nm.
For the setting “in C1CCOC1”, `CC1=[N+]2C(=C(c3ccc(C(=C(c4ccccc4)c4ccccc4)c4ccccc4)cc3)c3ccc(C)n3[B-]2(F)F)C=C1` displayed an absorption maximum of 511 nm.
Molecule `CCOC(=O)c1sc2nc(C)c(C)c(C#N)c2c1N` returned an absorption maximum (in c1ccccc1) of 406 nm.
For the molecule `COc1ccc(-c2nc(-c3ccccc3OC)[nH]c2-c2ccc(OC)cc2)cc1`, the absorption maximum (in CO) is recorded as 299 nm.
`CCCSc1ccc2n1[B-](F)(F)[N+]1=CC=CC1=C2c1ccccc1`: the absorption maximum reads like this: (in CC#N) 531 nm; (in CCCCCC) 536 nm; (in CCOC(C)=O) 534 nm; (in CO) 536 nm; (in ClCCl) 537 nm.
As to `CCN(CC)c1ccc2cc(-c3nc4cc(C(=O)Nc5cccc(C)c5)ccc4o3)c(=O)oc2c1`, the absorption maximum (in ClCCl) is 440 nm.
Turning to `CC(=O)[B-]1(C(C)=O)OC(c2ccccc2)=CC(c2ccc3ccccc3c2)=[O+]1`, the absorption maximum (in CC#N) is 400 nm and the absorption maximum (in ClC(Cl)(Cl)Cl) is on record as 400 nm.
In the case of `F[B-]1(F)OC(c2ccc3ccccc3c2)=CC(c2ccc3ccccc3c2)=[O+]1`, the absorption maximum is on record as 419 nm (in CC#N) and 412 nm (in ClC(Cl)(Cl)Cl).
Molecule `CCCCOc1c(-c2ccc(N(c3ccccc3)c3ccccc3)cc2)cc2cc(-c3ccc(N(c4ccccc4)c4ccccc4)cc3)c(OCCCC)c3c4c(OCCCC)c(-c5ccc(N(c6ccccc6)c6ccccc6)cc5)cc5cc(-c6ccc(N(c7ccccc7)c7ccccc7)cc6)c(OCCCC)c(c1c23)c54` yielded an absorption maximum (in ClCCl) of 422 nm.
Same read-out and setting: the result for `Clc1nnc(O/N=C/c2ccc(N(c3ccccc3)c3ccccc3)cc2)nn1` reads 518 nm.
Molecule `CC1(C)c2ccccc2N(c2ccc3c(c2)c(=O)c2cccc4c(=O)c5cc(N6c7ccccc7C(C)(C)c7ccccc76)ccc5n3c24)c2ccccc21` came in with an absorption maximum (in Cc1ccccc1) of 432.96 nm.
For the setting “in CS(C)=O”, `Cc1ccc(-c2nc3sc4ccccc4c3s2)cc1` gave an absorption maximum of 349 nm.
`CCCCCCCCCCCCCCCCn1c(-c2cc(-c3nc4ccc(C)cc4n3CCCCCCCCCCCCCCCC)cc(-c3nc4ccc(C)cc4n3CCCCCCCCCCCCCCCC)c2)nc2ccc(C)cc21` had an absorption maximum (in ClCCl) of 306 nm.
With `COc1nc(Nc2cc3ccc4cccc5ccc(c2)c3c45)nc(OC)n1`, the absorption maximum by setting is: (in CC#N) 336 nm; (in CCCCOCCCC) 336 nm; (in CO) 334 nm.
For the molecule `CC(C)(C)c1ccc(C2=C(c3ccc(-n4c5ccc(C(C)(C)C)cc5c5cc(C(C)(C)C)ccc54)cc3)S(=O)(=O)c3c2sc(-c2ccc(-n4c5ccc(C(C)(C)C)cc5c5cc(C(C)(C)C)ccc54)cc2)c3-c2ccc(C(C)(C)C)cc2)cc1`, the absorption maximum (in C1CCOC1) is reported as 429 nm.
